Experiments:
Type in all cases: biochemical
Aβ40 = biological target: T1, Aβ40 (Homo sapiens, UniProt P05067); experiment: Circular dichroism of Aβ40 secondary structure with fibril breakers; details: iAβ5 910 μM, 60.7 equiv; Aβ40 15 μM; 3 days
T1 construct: Amyloid protein (Aβ40) was purchased from GL Biochem Ltd. (Shanghai, China); purchased GL Biochem Ltd. (Shanghai, China)
Experimental: We used circular dichroism studies to further confirm the secondary structures of disassembled Aβ40 aggregates in the presence of mP-iAβ5 conjugates, PHPMA, or iAβ5. Aβ40 solutions were incubated alone for 24 h to form fibrils. […] As Aβ40 continues to aggregate, the negative peak at 198 nm was converted to the positive peak around 194 nm and a negative peak around 217 nm.
Fibril breakers (mP-iAβ5 conjugates, PHPMA, or iAβ5) were added to preformed Aβ40 fibrils after 24 h and coincubated for 3 days before the structure characterization by circular dichroism.
Circular Dichroism (CD) spectroscopy. CD spectra of Aβ40 fibril solution incubated without or with fibril breakers (mP-iAβ5 conjugates, PHPMA, or iAβ5) were recorded in a JASCO J-815 Spectrometer (JASCO Co., Tokyo, Japan), using a quartz cuvette (1 mm path length). […] The spectra were taken as the average of three accumulations from 190 and 260 nm at a speed of 50 nm/min. All of the samples were incubated at 37° C. in 10 mM phosphate buffer solution (PBS) with a continuous agitation speed of 567 rpm. Spectra were calibrated by subtracting the buffer or sample solution baseline.

preformed Aβ40 fibrils [1] = biological target: T2, preformed Aβ40 fibrils (Homo sapiens, UniProt P05067); experiment: ThT fluorescence assay of Aβ40 fibril disassembly; details: 15 μM Aβ40, PBS pH 7.4, 37° C., 3 days
T2 construct: Amyloid protein (Aβ40) was purchased from GL Biochem Ltd. (Shanghai, China); purchased GL Biochem Ltd. (Shanghai, China)
Experimental: ThT fluorescence assays were conducted in 96-well black plate (Thermo Scientific NUNC, catalog NO. 265301) at 37° C. with continuous shaking (567 rpm) in a BioTek Hybrid H1 plate reader. ThT fluorescence was recorded with 10 minutes reading intervals and 5 s shaking before first read (442 nm excitation, 482 nm emission). All samples were run in quadruple or more. At least three independent experiments were carried out for each ThT assay. Each well contained 10 mM PBS buffer solution (pH 7.4) and 20 μM ThT in a total volume of 200 μL. Aβ40 (15 μM, 1.0 equiv), iAβ5, control polymer 5, and mP-iAβ5 conjugates 4 of different molecular weights were added as needed. The concentrations of added samples were calculated based on Aβ40 (15 μM, 1.0 equiv).
Preparation of Buffered ThT Solution. The ThT solution in 20 mM PBS was freshly prepared before use. […] The concentration of the above solution was determined by UV-Vis at 412 nm (ε=36000 M^−1 cm^−1). Based on the determined concentration of the ThT solution, ultrapure water and 100 mM PBS were further added to dilute the ThT solution to 40 μM in 20 mM PBS, pH 7.4 […]
To each well of 96-well plate, the buffered ThT solution (40 μM, 100 μL) and ultrapure water (80 μL) were added and mixed. […] The samples containing mature fibrils of Aβ40 and modulators were coincubated for another 3 days in plate reader. The fluorescence was monitored by ThT assays.

preformed Aβ40 fibrils [2] = biological target: T2, preformed Aβ40 fibrils; experiment: Control incubations with preformed Aβ40 fibrils assessed by AFM and DLS; details: 3 days of incubation
Experimental: To evaluate the ability of mP-iAβ5 conjugates to disassemble amyloid fibrils, we conducted experiments in which mP-iAβ5 conjugates were incubated with preformed Aβ40 fibrils. Freshly prepared Aβ40 (15 μM) solutions were preincubated at 37° C. for 24 h, which is sufficiently long for mature fibrils to grow, as evidenced by AFM images and ThT fluorescence assays (FIG. 8). The preformed Aβ40 fibrils solution was then coincubated with 1.0 equiv of mP-iAβ5 conjugates of different molecular weights, and the morphology transformation of the fibril structures was monitored at 37° C. for 3 days by DLS, AFM imaging, and ThT fluorescence (we define an equiv of mP-iAβ5 as the molar ratio of polymer to Aβ40).
The molecular weight of mP-iAβ5 conjugate that completely disassembles preformed Aβ40 fibrils is 166 kDa. […] The disassembly of preformed fibrils by mP-iAβ5 conjugates was also quantitatively analyzed by DLS in solution phase. In agreement with AFM images, DLS results confirmed that all Aβ40 fibrils were transformed into dispersible sub-100 nm structures, and 0% of fibrils remained after 3 days of incubation (FIG. 2i). […] To investigate the effect of the PHPMA polymer backbone without iAβ5 moieties on Aβ40 disassembly, we incubated preformed Aβ40 fibrils in the presence of 1.0 equiv of 166 kDa PHPMA with and without 60.7 equiv of iAβ5 for 3 days.
Atomic Force Microscopy (AFM). Samples for AFM studies were taken directly from the ThT assays, and 10 μL of each sample solution was loaded on freshly cleaved mica surface (Electron Microscopy Sciences, catalog NO. 71856-01). Samples were incubated for 5 minutes and rinsed with 5 drops of molecular biology grade water. The mica surface was blow-dried under nitrogen. AFM images were obtained on a MultiMode V (Bruker, Santa Barbara, USA) microscope in tapping mode. Ultrasharp silicon cantilevers (SCANASYST-ATR, Bruker) were used. All of the images were collected at a scan rate of 1 Hz and scan lines of 512.
Dynamic Light Scattering (DLS). Samples for DLS studies were prepared at the same condition as in ThT assays without adding ThT dye molecules. The DLS studies were carried out using a particle sizer NICOMP 380 ZLS.

T2 sequence (P05067 672-711 limits assumed): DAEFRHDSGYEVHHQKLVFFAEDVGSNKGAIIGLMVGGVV
T1 sequence (P05067 672-711 limits assumed): as above

With LPFFD [iAβ5] the “secondary structure by CD after coincubation with preformed Aβ40 fibrils” value (Aβ40) was “remain β-sheet structures”, the “ThT intensity during coincubation with Aβ40 fibrils” value (preformed Aβ40 fibrils [1]) was “not accompanied by the decreased ThT intensity” and the “effect on preformed fibrils according to AFM and DLS” value (shortened to “effect”) (preformed Aβ40 fibrils [2]; 8.1 equiv of iAβ5 per Aβ40) was “remained unchanged”. For the same substance, the “effect” value (preformed Aβ40 fibrils [2]; 16.7 equiv of iAβ5 per Aβ40) was “remained unchanged”, the “effect” value (preformed Aβ40 fibrils [2]; 32.5 equiv of iAβ5 per Aβ40) was “remained unchanged” and the “effect” value (preformed Aβ40 fibrils [2]; 60.7 equiv of iAβ5 per Aβ40) was “remained unchanged”. For the same substance, the “effect” value (preformed Aβ40 fibrils [2]; 81.3 equiv of iAβ5 per Aβ40) was “remained unchanged”.

Reference: US20180296683A1, “COMPOSITIONS AND METHODS FOR DISASSEMBLING AMYLOID FIBRILS” (The Board of Trustees of the University of Illinois, priority 2017, published 2018)
